In US20120142784A1, “LYSINE-SPECIFIC DEMETHYLASE 1(LSD1) IS A BIOMARKER FOR BREAST CANCER” (priority 2009, published 2012):

What was measured:
[1] = test system: MCF7, MDA-MB 453, MDA-MB 231 and T47D breast cancer cells; test: MTT cell growth assay, breast cancer cell lines; type: cell-based; details: four breast cancer cell lines, treatment for 72 hours
Procedure: (§1) MCF7, MDA-MB 453 and MDA-MB 231 breast cancer cells were cultivated in DMEM, T47D breast cancer cells were cultivated in RPMI, GLC-1, GLC-2 and H460 R lung carcinoma cells were cultivated in IMDM, and sarcoma cells 1273 were cultivated in Häm's F12. All media were supplemented with 10% FCS, L-glutamine and antibiotics.
(§2) An 3-([…])-2,5-diphenyltetrazolium bromide (MTT) assay was performed according to the manufacturer's protocol (Roche, Mannheim, Germany).

[2] = test system: global H3K4 dimethylation; test: Western blot of H3K4 dimethylation in breast cancer cells; type: cell-based; details: 10 and or 30 μM, 24 h
Procedure: Protein lysates were extracted from cells and blotted as described in Schulte et al. [Schulte, J. H. et al. (2009), see above] The membranes were incubated for 1-2 hours using the following antibodies and dilutions: α-LSD1 (Novus Biologicals) 1:1000; α-K4H3me2 (Abcam, Cambridge, UK) 1:1000; β-actin (Sigma-Aldrich, Hamburg, Germany) 1:5000; Her2/erbB2 (DAKO), 1:1000. […] Anal. Biochem., 295, 17-21].

[3] = target: LSD1 protein (Homo sapiens, UniProt O60341); details: breast cancer cells, 10 and or 30 μM, 24 h
Procedure: The membranes were incubated for 1-2 hours using the following antibodies and dilutions: α-LSD1 (Novus Biologicals) 1:1000; α-K4H3me2 (Abcam, Cambridge, UK) 1:1000; β-actin (Sigma-Aldrich, Hamburg, Germany) 1:5000; Her2/erbB2 (DAKO), 1:1000.

[4] = test system: liposarcoma cell lines FU-DDLS-1, MLS1765, T449, T778, MLS402, SW872; test: MTT cell growth assay, liposarcoma cell lines; details: six liposarcoma cell lines, 72 h
[5] = test system: synovial sarcoma cell lines SYO-1, HS-SY-II, 1273/99, Fuji and CME-1; test: MTT cell growth assay, synovial sarcoma cell lines; details: five synovial sarcoma cell lines, 72 h
[6] = test system: GLC-1, GLC-2 and H460 R lung carcinoma cells; details: three lung carcinoma cell lines, 72 hours
Procedure: as §1, §2

[7] = test system: sarcoma cells 1273; details: sarcoma cell line 1273, 72 hours
Procedure: as §1, §2

## C#CCN(C)CCCOc1ccc(Cl)cc1Cl [clorgyline]
[1]
  cell growth (MTT assay, viable cells): impaired cell growth in a dose-dependent manner
[2]
  global H3K4 dimethylation (Western blot): accumulation of H3K4 dimethylation
[3]
  LSD1 protein levels (Western blot): not affected
[4]
  cell growth (MTT assay, viable cells): impaired cell growth in these sarcoma cell lines in a concentration dependent manner
[5]
  cell growth (MTT assay, viable cells): impaired cell growth in these sarcoma cell lines in a concentration dependent manner

## N[C@@H]1C[C@H]1c1ccccc1 (racemic) [tranylcypromine]
[1]
  cell growth (MTT assay, viable cells): impaired cell growth in a dose-dependent manner
[2]
  global H3K4 dimethylation (Western blot): accumulation of H3K4 dimethylation
[6]
  cell growth (MTT assay, viable cells): impaired cell growth
[7]
  cell growth (MTT assay, % viability): impaired cell growth
[4]
  cell growth (MTT assay, viable cells): impaired cell growth in these sarcoma cell lines in a concentration dependent manner
[5]
  cell growth (MTT assay, viable cells): impaired cell growth in these sarcoma cell lines in a concentration dependent manner

## C#CCN(C)Cc1ccccc1 [pargyline]
[4]
  cell growth (MTT assay, viable cells): impaired cell growth in these sarcoma cell lines in a concentration dependent manner
[5]
  cell growth (MTT assay, viable cells): impaired cell growth in these sarcoma cell lines in a concentration dependent manner
